According to patent US8399378B2, “Use of neonicotinoids in pest control” (Syngenta Crop Protection LLC, priority 1998, dated 2013):

Tests used:
Assay type in all cases: in vivo
Heliothis virescens = experiment: Spray test on young cotton plants, action against Heliothis virescens larvae; conditions: spray 100, 50, 10, 5, 1 ppm, evaluation 3 to 10 days
Excerpt: (§1) Young transgenic cotton plants which express the δ-endotoxin CryIIIA are sprayed with an aqueous emulsion spray mixture comprising 100, 50, 10, 5, 1 ppm of imidacloprid respectively. After the spray coating has dried on, the cotton plants are populated with 10 adult Anthonomus grandis, 10 Spodoptera littoralis larvae or 10 Heliothis virescens larvae respectively and introduced into a plastic container. Evaluation takes place 3 to 10 days later.
as §1, with “thiamethoxam” for “imidacloprid”
as §1, with “Ti-435” for “imidacloprid”, “later. […]” for “later.”

Anthonomus grandis = experiment: Spray test on young cotton plants, action against Anthonomus grandis adults; conditions: spray 100, 50, 10, 5, 1 ppm, evaluation 3 to 10 days
Excerpt: as §1
as §1, with “thiamethoxam” for “imidacloprid”
as §1, with “Ti-435” for “imidacloprid”
as §1, with “CryIa(c)” for “CryIIIA”, “Ti-435” for “imidacloprid”
as §1, with “CryIa(c)” for “CryIIIA”, “thiamethoxam” for “imidacloprid”
as §1, with “CryIa(c)” for “CryIIIA”

Spodoptera spp. = experiment: Maize plot spray test (KnockOut vs conventional maize), action against Spodoptera spp.; conditions: 6 days
Experimental: (§2) A plot (a) planted with maize cv. KnockOut® and an adjacent plot (b) of the same size which is planted with conventional maize, both showing natural infestation with Ostrinia nubilalis, Spodoptera spp. or Heliothis, are sprayed with an aqueous emulsion spray mixture comprising 200, 100, 50, 10, 5, 1 ppm of Ti-435. Immediately afterwards, plot (b) is treated with an emulsion spray mixture comprising 200, 100, 50, 10, 5, 1 ppm of the endotoxin expressed by KnockOut®. Evaluation takes place 6 days later. The percentage reduction in population (% action) is determined by comparing the number of dead pests on the plants of plot (a) with that on the plants of plot (b).
as §2, with “thiamethoxam.” for “Ti-435.”
as §2, with “imidacloprid.” for “Ti-435.”

[1] = test system: Frankliniella occidentalis; experiment: Cotton seedling spray test, action against Frankliniella occidentalis; conditions: 20° C, 3 and 6 days; for control (percentage reduction in population, % action): spray 400 ppm; for control level: plot (b) conventional cotton seedlings, 400 ppm compound
Experimental: (§3) Cotton seedlings expressing the δ-endotoxin CryIIIa on a plot (a) and conventional cotton seedlings on a plot (b) are infected with Frankliniella occidentalis and subsequently sprayed with a spray mixture comprising 400 ppm thiamethoxam. Immediately afterwards, plot (b) is treated with an emulsion spray mixture comprising 400 ppm of the δ-endotoxin CryIIIa. The seedlings of plot (a) and (b) are then incubated at 20° C. The test is evaluated after 3 and 6 days.
The percentage reduction in population (% action) is determined by comparing the number of dead pests on the plants of plot (a) with that on the plants of plot (b).
as §3, with “CryIa(c)” for “CryIIIa”, “CryIa(c).” for “CryIIIa.”

[2] = transgenic cotton expressing δ-endotoxin CryIIIA, compared with non-transgenic plant
[3] = transgenic cotton expressing δ-endotoxin CryIa(c)

SMILES: CN1COCN(Cc2cnc(Cl)s2)/C1=N\[N+](=O)[O-] [thiamethoxam, 5-(2-Chlorthiazol-5-ylmethyl)-3-methyl-4-nitroimino-perhydro-1,3,5-oxadiazin]
- control of the tested insects (percentage reduction in population or feeding damage, % action) (Heliothis virescens; [2]): superior
- control of the tested insects (percentage reduction in population or feeding damage, % action) (Heliothis virescens; [3]): superior
- control of the tested insects (percentage reduction in population or feeding damage, % action) (Anthonomus grandis; [2]): superior
- control of the tested insects (percentage reduction in population or feeding damage, % action) (Anthonomus grandis; [3]): superior
- control (percentage reduction in population, % action) (Spodoptera spp.; plot (a) maize cv. KnockOut, spray 200, 100, 50, 10, 5, 1 ppm, natural infestation): Improved control
- control level (Spodoptera spp.; plot (b) conventional maize, compound 200, 100, 50, 10, 5, 1 ppm, then same ppm of the endotoxin expressed by KnockOut): ≤ 60%
- control (percentage reduction in population, % action) ([1]; plot (a) cotton seedlings expressing δ-endotoxin CryIIIa): Improved control
- control (percentage reduction in population, % action) ([1]; plot (a) cotton seedlings expressing δ-endotoxin CryIa(c)): Improved control
- control level ([1]; then 400 ppm δ-endotoxin CryIIIa): ≤ 60%
- control level ([1]; then 400 ppm δ-endotoxin CryIa(c)): ≤ 60%
